Values after ≈ are worked out from the molar mass of the structure shown. Active and inactive are the calls of the source. No cut-off for these calls is given here.
Assays:
[1] = test system: Staphylococcus aureus; assay: Antimicrobial activity against Staphylococcus aureus after 18 to 20 hrs by micro broth dilution method; format: functional
[2] = test system: Bacillus cereus; assay: Antimicrobial activity against Bacillus cereus after 18 to 20 hrs by micro broth dilution method; format: functional
[3] = test system: Pseudomonas aeruginosa; assay: Antimicrobial activity against Pseudomonas aeruginosa after 18 to 20 hrs by micro broth dilution method; format: functional
[4] = test system: Escherichia coli; assay: Antimicrobial activity against Escherichia coli after 18 to 20 hrs by micro broth dilution method; format: functional
[5] = test system: Candida albicans; assay: Antimicrobial activity against Candida albicans after 18 to 20 hrs by micro broth dilution method; format: functional
[6] = test system: Staphylococcus aureus; assay: Bactericidal activity against Staphylococcus aureus after 24 hrs by micro broth dilution method; format: functional
[7] = test system: Bacillus cereus; assay: Bactericidal activity against Bacillus cereus after 24 hrs by micro broth dilution method; format: functional
[8] = test system: Staphylococcus aureus; assay: Antimicrobial activity against methicillin-resistant Staphylococcus aureus after 18 to 20 hrs by micro broth dilution method; format: functional
[9] = molecular target: DNA gyrase subunit A (Staphylococcus aureus, UniProt P20831); assay: Inhibition of Staphylococcus aureus DNA gyrase subunit A supercoiling activity using relaxed pBR322 DNA as substrate after 60 mins by agarose gel electrophoresis
Sequence of DNA gyrase subunit A (P20831 whole entry): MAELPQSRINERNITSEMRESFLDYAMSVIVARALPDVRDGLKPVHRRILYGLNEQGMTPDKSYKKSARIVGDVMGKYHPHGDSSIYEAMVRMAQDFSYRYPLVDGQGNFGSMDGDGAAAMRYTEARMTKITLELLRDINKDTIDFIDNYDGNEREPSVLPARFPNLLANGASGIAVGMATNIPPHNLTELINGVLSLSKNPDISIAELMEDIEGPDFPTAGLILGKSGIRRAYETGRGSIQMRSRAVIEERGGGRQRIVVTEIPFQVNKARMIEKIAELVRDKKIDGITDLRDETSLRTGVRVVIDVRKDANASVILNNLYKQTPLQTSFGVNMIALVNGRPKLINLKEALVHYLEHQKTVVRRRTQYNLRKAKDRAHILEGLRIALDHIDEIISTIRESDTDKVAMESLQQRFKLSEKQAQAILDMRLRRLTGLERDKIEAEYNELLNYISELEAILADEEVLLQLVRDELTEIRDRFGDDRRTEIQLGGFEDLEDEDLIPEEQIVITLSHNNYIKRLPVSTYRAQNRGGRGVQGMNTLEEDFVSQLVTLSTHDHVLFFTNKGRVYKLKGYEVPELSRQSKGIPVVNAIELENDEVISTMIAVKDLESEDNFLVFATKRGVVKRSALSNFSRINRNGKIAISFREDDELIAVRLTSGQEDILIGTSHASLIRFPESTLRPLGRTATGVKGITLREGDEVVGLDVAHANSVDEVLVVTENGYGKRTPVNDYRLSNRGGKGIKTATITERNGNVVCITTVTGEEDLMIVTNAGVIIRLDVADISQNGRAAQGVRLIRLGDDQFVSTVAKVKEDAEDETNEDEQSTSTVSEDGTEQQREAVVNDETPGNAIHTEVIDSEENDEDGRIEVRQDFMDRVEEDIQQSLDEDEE

[10] = test system: Staphylococcus aureus; assay: Growth inhibition of Staphylococcus aureus at 1 to 4 times MIC after 24 hrs; format: functional, organism-based
[11] = test system: Staphylococcus aureus; assay: Growth inhibition of Staphylococcus aureus at 0.25 to 0.5 times MIC after 24 hrs; format: functional, organism-based

Row | Structure (SMILES) | MIC [1] [µM] | MIC [2] [µM] | MIC [3] [µM] | MIC [4] [µM] | MIC [5] [µM] | MBC [6] [µM] | MBC [7] [µM] | MIC [8] [µM] | IC50 [9] [µM] | growth inhibition (GI) [10] | growth inhibition (GI) [11]
1 | CSc1[nH]c2c(F)ccc(C(F)(F)F)c2c(=O)c1C(C)=O | 0.8 (≈ 0.255 µg/mL) | 3.12 (≈ 0.998 µg/mL) | > 200 | > 200 | 200 (≈ 63.9 µg/mL) | 6.25 (≈ 2 µg/mL) | 6.25 (≈ 2 µg/mL) | > 200 | 2.47 |  | 
2 | CSc1[nH]c2c(C)cccc2c(=O)c1C(C)=O | > 200 | > 200 | > 200 | > 200 | > 200 |  |  |  |  |  | 
3 | CSc1[nH]c2c(Cl)cc(C(F)(F)F)cc2c(=O)c1C(C)=O | 0.8 (≈ 0.269 µg/mL) | 1.6 (≈ 0.537 µg/mL) | > 200 | > 200 | > 200 | 6.25 (≈ 2.1 µg/mL) | 6.25 (≈ 2.1 µg/mL) | > 200 | 8.01 | Active | inactive
4 | CC(=O)c1c(O)[nH]c2ccc(C(F)(F)F)cc2c1=O | > 200 | > 200 | > 200 | > 200 | > 200 |  |  |  |  |  | 
5 | CSc1[nH]c2ccc(C)cc2c(=O)c1C(C)=O | > 200 | > 200 | > 200 | > 200 | > 200 |  |  |  |  |  | 
6 | CSc1[nH]c2ccc(Br)cc2c(=O)c1C(C)=O | 25 (≈ 7.8 µg/mL) | 200 (≈ 62.4 µg/mL) | > 200 | > 200 | > 200 |  |  |  |  |  | 
7 | CCSc1[nH]c2ccc(C(F)(F)F)cc2c(=O)c1C(C)=O | 6.25 (≈ 1.97 µg/mL) | 25 (≈ 7.88 µg/mL) | > 200 | > 200 | > 200 | 25 (≈ 7.88 µg/mL) | 50 (≈ 15.8 µg/mL) | > 200 | 16.2 |  | 
8 | COc1ccc2[nH]c(SC)c(C(C)=O)c(=O)c2c1 | > 200 | > 200 | > 200 | > 200 | > 200 |  |  |  |  |  | 
9 | CC1COc2c(N3CCN(C)CC3)c(F)cc3c(=O)c(C(=O)O)cn1c23 (stereo not given) [OFLOXACIN] | 0.125 (≈ 0.0452 µg/mL) | 0.8 (≈ 0.289 µg/mL) | 4 (≈ 1.45 µg/mL) | 0.5 (≈ 0.181 µg/mL) |  | 0.5 (≈ 0.181 µg/mL) | 1.6 (≈ 0.578 µg/mL) | 100 (≈ 36.1 µg/mL) |  |  | 
10 | CN(C)[C@@H]1C(O)=C(C(N)=O)C(=O)[C@@]2(O)C(O)=C3C(=O)c4c(O)cccc4[C@@](C)(O)[C@H]3C[C@@H]12 [TETRACYCLINE] | 0.0325 (≈ 0.0144 µg/mL) | 1.6 (≈ 0.711 µg/mL) | 2 (≈ 0.889 µg/mL) | 0.25 (≈ 0.111 µg/mL) |  | 0.125 (≈ 0.0556 µg/mL) | 3.2 (≈ 1.42 µg/mL) | 200 (≈ 88.9 µg/mL) |  |  | 
11 | CSc1[nH]c2ccc(OC(F)(F)F)cc2c(=O)c1C(C)=O | 3.12 (≈ 0.992 µg/mL) | 12.5 (≈ 3.97 µg/mL) | > 200 | > 200 | > 200 | 25 (≈ 7.93 µg/mL) | 25 (≈ 7.93 µg/mL) | > 200 |  |  | 
12 | CC(=O)c1c([S+](C)[O-])[nH]c2ccc(C(F)(F)F)cc2c1=O (stereo not given) | 12.5 (≈ 3.97 µg/mL) | 3.12 (≈ 0.992 µg/mL) | > 200 | > 200 | > 200 | 50 (≈ 15.9 µg/mL) | 50 (≈ 15.9 µg/mL) | > 200 |  |  | 
13 | COc1ccc(C(F)(F)F)c2c(=O)c(C(C)=O)c(SC)[nH]c12 | > 200 | > 200 | > 200 | > 200 | > 200 |  |  |  |  |  | 
14 | CSc1[nH]c2cc(C(F)(F)F)c(C#N)cc2c(=O)c1C(C)=O | 0.8 (≈ 0.261 µg/mL) | 1.6 (≈ 0.522 µg/mL) | > 200 | > 200 | 200 (≈ 65.3 µg/mL) | 25 (≈ 8.16 µg/mL) | 25 (≈ 8.16 µg/mL) | > 200 | 6.47 | Active | inactive

Reference: ChEMBL document CHEMBL4152270, “Free radical rearrangement synthesis and microbiological evaluation of novel 2-sulfoether-4-quinolone scaffolds as potential antibacterial agents” (Eur J Med Chem, 2018)
